Results taken from the NIST ThermoML archive (doi:10.1021/je050183a).
Numbers after ± are expanded uncertainties.

Legend:
[1] = refractive index (Na D-line) (dimensionless); settings: 298.15 K; 101.33 kPa; Liquid; Standard Abbe refractometry
[2] = 101 kPa, Liquid; for viscosity: Capillary tube (Ostwald / Ubbelohde) method; for speed of sound: Linear variable-path acoustic interferometer; for mass density: Pycnometric method
[3] = refractive index (Na D-line) (dimensionless); xn = mol fraction of the nth substance listed; settings: 298.15 K, 101 kPa, Liquid, Standard Abbe refractometry
[4] = xn = mol fraction of the nth substance listed; settings: 101 kPa, Liquid; for viscosity: Capillary tube (Ostwald / Ubbelohde) method; for speed of sound: Linear variable-path acoustic interferometer; for mass density: Pycnometric method

Compound `CC1COC(=O)O1` (configuration not stated) [4-methyl-1,3-dioxolan-2-one] has a refractive index [1] of 1.4203 ± 0.0008, a viscosity ([2]; 288.15 K) of 3.086 ± 0.04 mPa·s and a speed of sound ([2]; 288.15 K) of 1478.4 ± 2.8 m/s. For the same compound, the mass density ([2]; 288.15 K) was 1208.67 ± 1.5 kg/m3, the viscosity ([2]; 298.15 K) was 2.499 ± 0.033 mPa·s and the speed of sound ([2]; 298.15 K) was 1442.3 ± 2.8 m/s. It also gave a mass density ([2]; 298.15 K) of 1197.58 ± 1.5 kg/m3.

`CCOC(=O)OCC` [diethyl carbonate] + CC1OC(C)OC(C)O1 showed a refractive index ([3]; x2 = 0) of 1.383 ± 0.0008, a viscosity ([4]; 288.15 K, x2 = 0) of 0.868 ± 0.011 mPa·s and a speed of sound ([4]; 288.15 K, x2 = 0) of 1225.6 ± 2.7 m/s. The mass density ([4]; 288.15 K, x2 = 0) was 980.41 ± 1.3 kg/m3, the viscosity ([4]; 298.15 K, x2 = 0) was 0.749 ± 0.01 mPa·s and the speed of sound ([4]; 298.15 K, x2 = 0) was 1173.4 ± 2.7 m/s. For the same compound, the mass density ([4]; 298.15 K, x2 = 0) was 969.15 ± 1.3 kg/m3.

`COC(=O)OC` [dimethyl carbonate] + CC1OC(C)OC(C)O1 showed a refractive index ([3]; x2 = 0) of 1.366 ± 0.0008, a viscosity ([4]; 288.15 K, x2 = 0) of 0.647 ± 0.009 mPa·s and a speed of sound ([4]; 288.15 K, x2 = 0) of 1242 ± 2.7 m/s. For the same compound, the mass density ([4]; 288.15 K, x2 = 0) was 1076.43 ± 1.5 kg/m3, the viscosity ([4]; 298.15 K, x2 = 0) was 0.579 ± 0.008 mPa·s and the speed of sound ([4]; 298.15 K, x2 = 0) was 1197.4 ± 2.7 m/s. The mass density ([4]; 298.15 K, x2 = 0) was 1063.1 ± 1.5 kg/m3.

In the case of `CC1OC(C)OC(C)O1` (configuration not stated) [2,4,6-trimethyl-1,3,5-trioxane], the refractive index [1] is reported as 1.4029 ± 0.0008, the viscosity ([2]; 288.15 K) is reported as 1.374 ± 0.018 mPa·s and the speed of sound ([2]; 288.15 K) is reported as 1217.7 ± 2.7 m/s. It also gave a mass density ([2]; 288.15 K) of 999.69 ± 1.3 kg/m3, a viscosity ([2]; 298.15 K) of 1.107 ± 0.015 mPa·s and a speed of sound ([2]; 298.15 K) of 1174.5 ± 2.6 m/s. It also gave a mass density ([2]; 298.15 K) of 988.35 ± 1.3 kg/m3.

For `COC(=O)OC` [dimethyl carbonate], the refractive index [1] was 1.366 ± 0.0008, the viscosity ([2]; 288.15 K) was 0.647 ± 0.009 mPa·s and the speed of sound ([2]; 288.15 K) was 1242 ± 2.7 m/s. For the same compound, the mass density ([2]; 288.15 K) was 1076.43 ± 1.5 kg/m3, the viscosity ([2]; 298.15 K) was 0.579 ± 0.008 mPa·s and the speed of sound ([2]; 298.15 K) was 1197.4 ± 2.7 m/s. It also gave a mass density ([2]; 298.15 K) of 1063.1 ± 1.5 kg/m3.

Work on `CC1COC(=O)O1` (configuration not stated) [4-methyl-1,3-dioxolan-2-one] + CC1OC(C)OC(C)O1 yielded a refractive index ([3]; x2 = 0) of 1.4203 ± 0.0008, a viscosity ([4]; 288.15 K, x2 = 0) of 3.086 ± 0.04 mPa·s and a speed of sound ([4]; 288.15 K, x2 = 0) of 1478.4 ± 2.8 m/s. For the same compound, the mass density ([4]; 288.15 K, x2 = 0) was 1208.67 ± 1.5 kg/m3, the viscosity ([4]; 298.15 K, x2 = 0) was 2.499 ± 0.033 mPa·s and the speed of sound ([4]; 298.15 K, x2 = 0) was 1442.3 ± 2.8 m/s. The mass density ([4]; 298.15 K, x2 = 0) was 1197.58 ± 1.5 kg/m3.

For `CC1OC(C)OC(C)O1` (configuration not stated) [2,4,6-trimethyl-1,3,5-trioxane] + CC1COC(=O)O1, the refractive index ([3]; x1 = 0.091) was 1.4188 ± 0.0008, the refractive index ([3]; x1 = 0.2019) was 1.4172 ± 0.0008 and the refractive index ([3]; x1 = 0.3007) was 1.4157 ± 0.0008. The refractive index ([3]; x1 = 0.4055) was 1.4142 ± 0.0008, the refractive index ([3]; x1 = 0.5011) was 1.4127 ± 0.0008 and the refractive index ([3]; x1 = 0.6022) was 1.4111 ± 0.0008. The refractive index ([3]; x1 = 0.7006) was 1.4094 ± 0.0008, the viscosity ([4]; 288.15 K, x1 = 0.091) was 2.966 ± 0.038 mPa·s and the viscosity ([4]; 288.15 K, x1 = 0.2019) was 2.809 ± 0.036 mPa·s. The viscosity ([4]; 288.15 K, x1 = 0.3007) was 2.661 ± 0.035 mPa·s, the viscosity ([4]; 288.15 K, x1 = 0.4055) was 2.494 ± 0.033 mPa·s and the viscosity ([4]; 288.15 K, x1 = 0.5011) was 2.333 ± 0.031 mPa·s. It also gave a viscosity ([4]; 288.15 K, x1 = 0.6022) of 2.155 ± 0.028 mPa·s, a viscosity ([4]; 288.15 K, x1 = 0.7006) of 1.974 ± 0.026 mPa·s and a viscosity ([4]; 288.15 K, x1 = 0.8028) of 1.779 ± 0.023 mPa·s. For the same compound, the viscosity ([4]; 288.15 K, x1 = 0.9027) was 1.581 ± 0.021 mPa·s, the viscosity ([4]; 288.15 K, x1 = 1) was 1.374 ± 0.018 mPa·s and the speed of sound ([4]; 288.15 K, x1 = 0.091) was 1451.8 ± 2.8 m/s. For the same compound, the speed of sound ([4]; 288.15 K, x1 = 0.2019) was 1420.2 ± 2.8 m/s, the speed of sound ([4]; 288.15 K, x1 = 0.3007) was 1392.9 ± 2.8 m/s and the speed of sound ([4]; 288.15 K, x1 = 0.4055) was 1364.7 ± 2.8 m/s. It also gave a speed of sound ([4]; 288.15 K, x1 = 0.5011) of 1339.7 ± 2.8 m/s, a speed of sound ([4]; 288.15 K, x1 = 0.6022) of 1314 ± 2.7 m/s and a speed of sound ([4]; 288.15 K, x1 = 0.7006) of 1289.8 ± 2.7 m/s. For the same compound, the speed of sound ([4]; 288.15 K, x1 = 0.8028) was 1265.5 ± 2.7 m/s, the speed of sound ([4]; 288.15 K, x1 = 0.9027) was 1242.1 ± 2.7 m/s and the speed of sound ([4]; 288.15 K, x1 = 1) was 1217.7 ± 2.7 m/s. The mass density ([4]; 288.15 K, x1 = 0.091) was 1181.68 ± 1.5 kg/m3, the mass density ([4]; 288.15 K, x1 = 0.2019) was 1151.81 ± 1.5 kg/m3 and the mass density ([4]; 288.15 K, x1 = 0.3007) was 1127.63 ± 1.4 kg/m3. The mass density ([4]; 288.15 K, x1 = 0.4055) was 1104.07 ± 1.4 kg/m3, the mass density ([4]; 288.15 K, x1 = 0.5011) was 1084.21 ± 1.4 kg/m3 and the mass density ([4]; 288.15 K, x1 = 0.6022) was 1064.71 ± 1.4 kg/m3. For the same compound, the mass density ([4]; 288.15 K, x1 = 0.7006) was 1046.98 ± 1.4 kg/m3, the mass density ([4]; 288.15 K, x1 = 0.8028) was 1029.73 ± 1.4 kg/m3 and the mass density ([4]; 288.15 K, x1 = 0.9027) was 1014 ± 1.4 kg/m3. The mass density ([4]; 288.15 K, x1 = 1) was 999.69 ± 1.4 kg/m3, the viscosity ([4]; 298.15 K, x1 = 0.091) was 2.386 ± 0.032 mPa·s and the viscosity ([4]; 298.15 K, x1 = 0.2019) was 2.245 ± 0.03 mPa·s. The viscosity ([4]; 298.15 K, x1 = 0.3007) was 2.116 ± 0.028 mPa·s, the viscosity ([4]; 298.15 K, x1 = 0.4055) was 1.977 ± 0.027 mPa·s and the viscosity ([4]; 298.15 K, x1 = 0.5011) was 1.846 ± 0.025 mPa·s. It also gave a viscosity ([4]; 298.15 K, x1 = 0.6022) of 1.705 ± 0.023 mPa·s, a viscosity ([4]; 298.15 K, x1 = 0.7006) of 1.563 ± 0.021 mPa·s and a speed of sound ([4]; 298.15 K, x1 = 0.091) of 1415 ± 2.8 m/s. The speed of sound ([4]; 298.15 K, x1 = 0.2019) was 1382.6 ± 2.8 m/s, the speed of sound ([4]; 298.15 K, x1 = 0.3007) was 1354.5 ± 2.8 m/s and the speed of sound ([4]; 298.15 K, x1 = 0.4055) was 1325.5 ± 2.7 m/s. It also gave a speed of sound ([4]; 298.15 K, x1 = 0.5011) of 1299.9 ± 2.7 m/s, a speed of sound ([4]; 298.15 K, x1 = 0.6022) of 1273.4 ± 2.7 m/s and a speed of sound ([4]; 298.15 K, x1 = 0.7006) of 1248.5 ± 2.7 m/s. For the same compound, the mass density ([4]; 298.15 K, x1 = 0.091) was 1170.78 ± 1.4 kg/m3, the mass density ([4]; 298.15 K, x1 = 0.2019) was 1141.1 ± 1.4 kg/m3 and the mass density ([4]; 298.15 K, x1 = 0.3007) was 1117.02 ± 1.4 kg/m3. The mass density ([4]; 298.15 K, x1 = 0.4055) was 1093.5 ± 1.4 kg/m3, the mass density ([4]; 298.15 K, x1 = 0.5011) was 1073.63 ± 1.4 kg/m3 and the mass density ([4]; 298.15 K, x1 = 0.6022) was 1054.05 ± 1.3 kg/m3. The mass density ([4]; 298.15 K, x1 = 0.7006) was 1036.19 ± 1.4 kg/m3.

`CCOC(=O)OCC` [diethyl carbonate] showed a refractive index [1] of 1.383 ± 0.0008, a viscosity ([2]; 288.15 K) of 0.868 ± 0.011 mPa·s and a speed of sound ([2]; 288.15 K) of 1225.6 ± 2.7 m/s. It also gave a mass density ([2]; 288.15 K) of 980.41 ± 1.3 kg/m3, a viscosity ([2]; 298.15 K) of 0.749 ± 0.01 mPa·s and a speed of sound ([2]; 298.15 K) of 1173.4 ± 2.7 m/s. For the same compound, the mass density ([2]; 298.15 K) was 969.15 ± 1.3 kg/m3.
